The values that follow come from patent US7030134B2, “Pyrazolopyridinyl pyridine and pyrimidine therapeutic compounds” (SmithKline Beecham Corporation, priority 2001, dated 2006).

One data set relates to HSV-1. Nature of the data set: HSV-1 replication in infected Vero 76 cells, DNA hybridization capture assay. Conditions: Human alphaherpesvirus 1; HSV-1 (MOI=0.001) in Vero 76 cells, 40–48 hours incubation, HSV DNA hybridization chemiluminescence readout; read-out: IC50. In kind it is cell-based, herpes simplex virus 1. The procedure:
Vero 76 cells were maintained in MEM with Earle's salts, L-glutamine, 8% FBS (Hyclone, A-1111-L) and 100 units/mL Penicillin-100 μg/mL Streptomycin. For assay conditions, FBS was reduced to 2%. Cells are seeded into 96-well tissue culture plates at a density of 5×10^4 cells/well after being incubated for 45 min at 37° C. in the presence of HSV-1 or HSV-2 (MOI=0.001). Test compounds are added to the wells and the plates are incubated at 37° C. for 40–48 hours. Cell lysates are prepared as follows: media was removed and replaced with 150 μL/well 0.2 N NaOH with 1% Igepal CA 630 or NP-40. Plates were incubated up to 14 days at room temperature in a humidified chamber to prevent evaporation.
For the detection probe, a gel-purified, digoxigenin-labeled, […] PCR fragment of the HSV UL-15 sequence was utilized. PCR conditions included 0.5 μM primers, 180 μM dTTP, 20 μM dUTP-digoxigenin (Boehringer Mannheim 1558706), 200 μM each of dATP, dCTP, and dGTP, 1×PCR Buffer II (Perkin Elmer), 2.5 mM MgCl2, 0.025 units/μL of AmpliTaq Gold polymerase (Perkin Elmer), and 5 ng of gel-purified HSV DNA per 100 μL. Extension conditions were 10 min at 95° C., followed by 30 cycles of 95° C. for 1 min, 55° C. for 30 sec, and 72° C. for 2 min. The amplification was completed with a 10-min incubation at 72° C. Primers were selected to amplify a 728 bp probe spanning a section of the HSV1 UL 15 open reading frame (nucleotides 249–977). Single-stranded transcripts were purified with Promega M13 Wizard kits. The final product was mixed 1:1 with a mixture of 6 M GuSCN, 100 mM EDTA and 200 μg/mL herring sperm DNA and stored at 4° C.
The capture DNA plasmid (HSV UL13 region in pUC) was linearized by cutting with Xba I, denatured for 15 min at 95° C. and diluted immediately into Reacti-Bind DNA Coating Solution (Pierce, 17250, diluted 1:1 with TE buffer, pH 8) at 1 ng/μL 75 μL/well were added to Corning (#3922 or 9690) white 96-well plates and incubated at room temperature for at least 4 hrs before washing twice with 300 μL/well 0.2×SSC/0.05% Tween-20 (SSC/T buffer). The plates were then incubated overnight at room temperature with 150 μL/well 0.2 N NaOH, 1% IGEPAL and 10 μg/mL herring sperm DNA.
Twenty-seven (27) μL of cell lysate was combined with 45 μL of hybridization solution (final concentration:3M GuSCN, 50 mM EDTA, 100 μg/ml salmon sperm DNA, 5× Denhardt's solution, 0.25×APE, and 5 ng of the digoxigenin-labeled detection probe). APE is 1.5 M NH4-acetate, 0.15 M NH4H2 phosphate, and 5 mM EDTA adjusted to pH 6.0. Mineral oil (50 μL) was added to prevent evaporation. The hybridization plates were incubated at 95° C. for 10 minutes to denature the DNA, then incubated at 42° C. overnight. The wells were washed 6× with 300 μL/well SSC/T buffer then incubated with 75 μL/well anti-digoxigenin-HRP-conjugated antibody (Boehringer Mannheim 1207733, 1:5000 in TE) for 30 min at room temperature. The wells were washed 6× with 300 μL/well with PBS/0.05% Tween-20 before 75 μL/well SuperSignal LBA substrate (Pierce) was added. The plates were incubated at room temperature for 30 minutes and chemiluminescence was measured in a Wallac Victor reader.
The following results were obtained for HSV-1.

The IC50 is the midpoint of a concentration-inhibition curve. For orientation: melting point means the temperature of the solid-liquid transition.

Consider `COc1cc(NC2CCCC2)n2nc(-c3ccc(F)cc3)c(-c3ccnc(NC4CCCC4)n3)c2c1` [Example 45, N-Cyclopentyl-3-[2-(cyclopentylamino)-4-pyrimidinyl]-2-(4-fluorophenyl)-5-methoxypyrazolo[1,5-a]pyridin-7-amine], for which the melting point lay in the range of 167 to 169 °C. The IC50 in the data set on HSV-1 is 150 nM. `Fc1ccc(-c2nn3c(NC4CCCC4)cc(NC4CCCC4)cc3c2-c2ccnc(NC3CCCC3)n2)cc1` [Example 14, N^5,N^7-Dicyclopentyl-3-[2-(cyclopentylamino)-4-pyrimidinyl]-2-(4-fluorophenyl)pyrazolo[1,5-a]pyridine-5,7-diamine]: the IC50 in the data set with HSV-1 is 240 nM. On the same count and under the same terms, next, `CN(C)C(=O)c1ccc2c(-c3ccnc(NC4CCCC4)n3)c(-c3ccc(F)cc3)nn2c1NC1CCCC1` [Example 6, 7-(Cyclopentylamino)-3-[2-(cyclopentylamino)-4-pyrimidinyl]-2-(4-fluorophenyl)-N,N-dimethylpyrazolo[1,5-a]pyridine-6-carboxamide]: 4000 nM; `CCOC(=O)c1ccc2c(-c3ccnc(NC4CCCC4)n3)c(-c3ccc(F)cc3)nn2c1NC1CCCC1` [Example 3, Ethyl 7-(cyclopentylamino)-3-[2-(cyclopentylamino)-4-pyrimidinyl]-2-(4-fluorophenyl)pyrazolo[1,5-a]pyridine-6-carboxylate]: 6300 nM; `COc1ccc(-c2nn3c(NC4CCCC4)cc(Cl)cc3c2-c2ccnc(NC3CCCC3)n2)cc1` [Example 18, N-{4-[5-Chloro-7-(cyclopentylamino)-2-(4-methoxyphenyl)pyrazolo-[1,5-a]pyridin-3-yl]-2-pyrimidinyl}-N-cyclopentylamine]: 250 nM. On the same count and under the same terms, next, `Fc1ccc(-c2nn3c(NC4CC4)cc(Cl)cc3c2-c2ccnc(NC3CCCC3)n2)cc1` [Example 22, 5-Chloro-3-[2-(cyclopentylamino)-4-pyrimidinyl]-N-cyclopropyl-2-(4-fluorophenyl)pyrazolo[1,5-a]pyridin-7-amine]: 200 nM. As for `O=C(NCCN1CCOCC1)c1ccc2c(-c3ccnc(NC4CCCC4)n3)c(-c3ccc(F)cc3)nn2c1NC1CCCC1` [Example 8, 7-(Cyclopentylamino)-3-[2-(cyclopentylamino)-4-pyrimidinyl]-2-(4-fluorophenyl)-N-[2-(4-morpholinyl)ethyl]pyrazolo[1,5-a]pyridine-6-carboxamide], in the data set on HSV-1, the IC50 came out at 5000 nM.

In the case of `OCc1ccc2c(-c3ccnc(NC4CCCC4)n3)c(-c3ccc(F)cc3)nn2c1NC1CCCC1` [Example 11, [7-(Cyclopentylamino)-3-[2-(cyclopentylamino)-4-pyrimidinyl]-2-(4-fluorophenyl)pyrazolo[1,5-a]pyridin-6-yl]methanol], the IC50 in the data set with HSV-1 stood at 970 nM. Still for that read-out and setting: the result for `COc1ccc(-c2nn3c(NC4CCCC4)cc(Cl)cc3c2-c2ccnc(NC3CC3)n2)cc1` [Example 38, N-{4-[5-Chloro-7-(cyclopentylamino)-2-(4-methoxyphenyl)pyrazolo[1,5-a]pyridin-3-yl]-2-pyrimidinyl}-N-cyclopropylamine] reads 340 nM; that for `Fc1ccc(-c2nn3c(NC4CCCC4)c(C(F)(F)F)ccc3c2-c2ccnc(NC3CCCC3)n2)cc1` [Example 2, N-Cyclopentyl-3-[2-(cyclopentylamino)-4-pyrimidinyl]-2-(4-fluorophenyl)-6-(trifluoromethyl)pyrazolo[1,5-a]pyridin-7-amine], 3300 nM; that for `Fc1ccc(-c2nn3c(Cl)cc(NC4CCCC4)cc3c2-c2ccnc(NC3CCCC3)n2)cc1` [Example 41, 7-Chloro-N-cyclopentyl-3-[2-(cyclopentylamino)pyrimidin-4-yl]-2-(4-fluorophenyl)pyrazolo[1,5-a]pyridin-5-amine], 1300 nM. On to `Fc1ccc(-c2nn3c(NC4CCCC4)cc(Cl)cc3c2-c2ccnc(NC3CCCC3)n2)cc1` [Example 13, N-{4-[5-Chloro-7-(cyclopentylamino)-2-(4-fluorophenyl)pyrazolo[1,5-a]pyridin-3-yl]-2-pyrimidinyl}-N-cyclopentylamine], for which, in the data set with HSV-1, the 50% inhibitory concentration (IC50) worked out at 170 nM. On the same count and under the same terms, next, `Fc1ccc(-c2nn3c(N4CCOCC4)cc(Cl)cc3c2-c2ccnc(NC3CCCC3)n2)cc1` [Example 25, 4-[5-Chloro-2-(4-fluorophenyl)-7-(4-morpholinyl)pyrazolo[1,5-a]pyridin-3-yl]-N-cyclopentyl-2-pyrimidinamine]: 190 nM; `CC(C)Nc1cc(NC(C)C)n2nc(-c3ccc(F)cc3)c(-c3ccnc(NC4CCCC4)n3)c2c1` [Example 16, 3-[2-(Cyclopentylamino)-4-pyrimidinyl]-2-(4-fluorophenyl)-N^5,N^7-diisopropylpyrazolo[1,5-a]pyridine-5,7-diamine]: 550 nM; `O=C(NO)c1ccc2c(-c3ccnc(NC4CCCC4)n3)c(-c3ccc(F)cc3)nn2c1NC1CCCC1` [Example 7, 7-(Cyclopentylamino)-3-[2-(cyclopentylamino)-4-pyrimidinyl]-2-(4-fluorophenyl)-N-hydroxypyrazolo[1,5-a]pyridine-6-carboxamide]: 1000 nM. On the same count and under the same terms, the result for `Fc1ccc(-c2nn3c(N4CCCCC4)cc(Cl)cc3c2-c2ccnc(NC3CCCC3)n2)cc1` [Example 24, 4-[5-Chloro-2-(4-fluorophenyl)-7-(1-piperidinyl)pyrazolo[1,5-a]pyridin-3-yl]-N-cyclopentyl-2-pyrimidinamine] reads 120 nM; that for `Fc1ccc(-c2nn3c(NC4CCCC4)c(Br)cc(Br)c3c2-c2ccnc(NC3CCCC3)n2)cc1` [Example 42, 4,6-Dibromo-N-cyclopentyl-3-[2-(cyclopentylamino)pyrimidin-4-yl]-2-(4-fluorophenyl)pyrazolo[1,5-a]pyridin-7-amine], 20000 nM; that for `CC(C)Nc1cc(Cl)cc2c(-c3ccnc(NC4CCCC4)n3)c(-c3ccc(F)cc3)nn12` [Example 15, 5-Chloro-3-[2-(cyclopentylamino)-4-pyrimidinyl]-2-(4-fluorophenyl)-N-isopropylpyrazolo[1,5-a]pyridin-7-amine], 1450 nM. Same read-out and setting: next, `Cc1cccc(-c2nn3c(NC4CCCC4)cc(Cl)cc3c2-c2ccnc(NC3CC3)n2)c1` [Example 21, 5-Chloro-N-cyclopentyl-3-[2-(cyclopropylamino)pyrimidin-4-yl]-2-(3-methylphenyl)pyrazolo[1,5-a]pyridin-7-amine]: 600 nM; `COc1ccc(-c2nn3c(Cl)cc(Cl)cc3c2-c2ccnc(NC3CCCC3)n2)cc1` [Example 17, N-Cyclopentyl-4-[5,7-dichloro-2-(4-methoxyphenyl)pyrazolo[1,5-a]pyridin-3-yl]-2-pyrimidinamine]: 5200 nM. Regarding `Fc1ccc(-c2nn3c(NC4CCCC4)c(Cl)ccc3c2-c2ccnc(NC3CCCC3)n2)cc1` [Example 44, 6-Chloro-N-cyclopentyl-3-[2-(cyclopentylamino)pyrimidin-4-yl]-2-(4-fluorophenyl)pyrazolo[1,5-a]pyridin-7-amine], the concentration for half-maximal inhibition (IC50) in the data set with HSV-1 was 900 nM. On the same count and under the same terms, next, `Oc1ccc(-c2nn3c(NC4CCCC4)cc(Cl)cc3c2-c2ccnc(NC3CC3)n2)cc1` [Example 39, 4-{5-Chloro-7-(cyclopentylamino)-3-[2-(cyclopropylamino)-4-pyrimidinyl]pyrazolo[1,5-a]pyridin-2-yl}phenol]: 2000 nM. Still for that read-out and setting: next, `Clc1cccc(-c2nn3c(NC4CCCC4)cc(Cl)cc3c2-c2ccnc(NC3CCCC3)n2)c1` [Example 29, N-{4-[5-chloro-2-(3-chlorophenyl)-7-(cyclopentylamino)pyrazolo[1,5-a]pyridin-3-yl]-2-pyrimidinyl}-N-cyclopentylamine]: 350 nM.
